In patent US12616711B2, “Therapeutic dendrimer” (Starpharma Pty Ltd, priority 2019, dated 2026):

How the values were obtained:
A549 cells = test: alamarBlue viability assay, GI50; format: cell-based, human; settings: 72 h, given in μM Gemcitabine
Procedure: (§1) A study was carried out to determine the ability of example dendrimers to inhibit growth of cancer cell lines using an alamarBlue viability assay (Thermo Fisher, DAL1025).
(§2) The cytotoxicity of compounds toward MDA-MB-231, A549, H460, BxPC3 and CAPAN-1 cells were evaluated for viability. Cells were seeded at a density of 1.2-5×10^3 cells, dependent on cell growth rate, in 96 well plates and incubated overnight. Cells were then treated with serial dilutions of test compositions for 72 h (MDA-MB-231, A549 and H460 lines) or 144 h (BxPC3 and CAPAN-1 lines). For cell viability analysis, 10% media volume of alamar Blue was added during the final 6-8 h of incubation. Reduction of alamarBlue in living cells yields a red fluorescent metabolite that can be read on a plate reader (560 nm excitation/610 nm emission.). Cell viability and subsequent GI50 values were was determined from the blank corrected dose-response curves, with 4-parameter nonlinear curve fit, in GraphPad Prism.

CAPAN-1 cells = test: alamarBlue viability assay, GI50; format: cell-based, human; settings: 144 h, given in μM Gemcitabine
Procedure: as §1, §2

[1] = tested on: CAPAN-1 tumour xenografts; test: CAPAN-1 mouse xenograft, alone or with Abraxane or DEP-DTX (Examples 13a, 13b); format: in vivo
Procedure: Mice were inoculated and tumours sized as described above. On day nineteen after implantation, mice with similar sized tumours (mean tumour volume 100 mm^3) were randomised into 7 groups of 10 animals. […] Abraxane® was dissolved in saline solution immediately prior to dosing.
Abraxane®, gemcitabine and dendrimers were administered at days 1, 10, and 17 via tail vein i.v. injection, at 0.1 ml/10 g body weight.
In an extension of Example 13a, two additional groups of mice were prepared and dosed to assess the anti-tumour efficacy properties of a taxane-dendrimer combined with a nucleoside analogue-dendrimer (e.g. 6). Mice were inoculated and tumours sized as described above.
Dendrimers were administered weekly via tail vein i.v. injection, at 0.1 ml/10 g body weight for 3 weeks.
All statistical analyses were performed using GraphPad Prism 8.1.

[BHA Lys][Lys]30[Lys]32 [Compound 3, [BHA Lys][Lys]30[Lys]32 [(α-NH-TDA-Gemcitabine)32 (ε-NHPEG˜2100)32]]
GI50 (A549 cells): 0.05 µM
GI50 (CAPAN-1 cells): 0.008 µM
anti-tumour efficacy compared to other groups at day 29 ([1]; day 29): significantly more effective than Gemcitabine
Tumour Growth inhibition (%) v vehicle at day 29 ([1]; day 29, i.v., Gemcitabine 120, Abraxane 40, 3 at 6.5, 6 at 5 (day 1) then 4, DEP-DTX 24 (10 in combination) mg/kg): 103%
anti-tumour efficacy compared to other groups over the dosing study (FIG. 6) ([1]; out to day 82): more effective than Gemcitabine and also more effective than the combination of gemcitabine and Abraxane®
